US7169787B2, “7-azaindoles, use thereof as phosphodiesterase 4 inhibitors and method for producing the same” (Elbion AG, priority 2000, dated 2007)

Tests used:
PDE 4 = assay: Inhibition of phosphodiesterase 4 (enzyme preparation from human PMNL, [3H]-cAMP); format: biochemical; details: PDE 4 from human PMNL cytosol, 0.5 μM [3H]-cAMP
Protocol: The PDE 4 activity is determined in enzyme preparations from human polymorphonuclear […] (PMNL) and the PDE 2, 3 and 5 activity is determined with PDE from human thrombocytes. Human blood was anti-coagulated with citrate. By centrifuging at 700×g for 20 minutes at room temperature, the thrombocyte-rich plasma in the supernatant is separated from the erythrocytes and leukocytes. The thrombocytes are lysed by ultrasound and used in the PDE 3 and PDE 5 assays. For the determination of the PDE 2 activity, the cytosolic thrombocyte fraction is purified on an anionic exchange column by means of NaCl gradients and the PDE 2 peak is obtained for the assay. The PMNLs for the PDE 4 determination are isolated by a subsequent dextran sedimentation, followed by a gradient centrifugation with Ficoll-Paque. After the cells have been washed twice, the erythrocytes, still contained, are lysed within 6 minutes at 4° C. by the addition of 10 mL of hypotonic buffer (155 mM of NH4Cl, 10 mM of NaHCO3, 0.1 mM of EDTA, pH=7.4). The PMNLs, which are still intact, are washed twice with PBS and lysed with ultrasound. The supernatant of a one-hour centrifugation at 4° C. at 48,000×g contains the cytosolic fraction of the PDE 4 and is used for the PDE 4 measurements.
The phosphodiesterase activity is determined using the method described by Thompson et al. with some modifications (Thompson, W. J. and M. M. Appleman, Assay of cyclic nucleotide phosphodiesterase and resolution of multiple molecular forms of the enzyme, Adv. Cycl. Nucl. Res. 1979, 10, 69–92).
The reaction mixtures contain 50 mM of tris hydrochloride (pH 7.4), 5 mM of magnesium chloride, the inhibitors in various concentrations, the corresponding enzyme preparation as well as the further components necessary for determining the individual isoenzymes (see below). The reaction is started by the addition of the substrate, 0.5 μM of [^3H]-cAMP or [^3H]-cGMP (approximately 6000 CPM per test). The final volume is […]. Test substances are mixed as stock solutions in DMSO. The DMSO concentration in the reaction mixture is 1% v/v. The PDE activity is not affected by this concentration of DMSO. After the reaction is started by the addition of substrate, samples are incubated for 30 minutes at 37° C. The reaction is stopped by heating the test tubes for 2 minutes at 110° C. The samples remain for a further 10 minutes in ice. The addition of 30 μL of 5′-nucleotidase (1 mg/mL, from a poisonous snake suspension from Crotalus adamanteus) is followed by a 10-minutes incubation at 37° C. The samples are stopped on ice, in each case 400 μL of a mixture of Dowex, water and ethanol (1+1+1) is added, mixed well and incubated once again for 15 minutes on ice. The reaction vessels are centrifuged for 20 minutes at 3000×g. Aliquots of the supernatant (200 μL) are transferred directly to scintillation vessels. After the addition of 3 mL of scintillator, the samples are measured in the beta counter.
[^3H]-cAMP is used as substrate for the determination of the PDE 4, 3 and 2 activity and [^3H]-cGMP is used as substrate for the determination of the PDE 5 activity. The enzyme activities, which are nonspecific in each case, are determined in the presence of 100 μM of Rolipram for the determination of PDE 4 and in the presence of 100 μM of IBMX for the determination of the PDE 3 and 5 and subtracted from the test values. The incubation formulations of the PDE 3 assays contained 10 μM of Rolipram, in order to inhibit possible contaminations by PDE 4. The PDE 2 is tested with an SPA assay of the Amersham Company. The assay is carried out in the presence of the activator of the PDE 2 (5 μM of cGMP).

[1] = tested on: release of TNFα from cells of nasal polyps; assay: Inhibition of the release of TNFα from cells of nasal polyps (anti-IgE stimulated, ELISA); format: cell-based; details: Homo sapiens, anti-IgE stimulated nasal polyp cells
Protocol: The experimental arrangement corresponds essentially to the method described by Campbell, A. M. and J. Bousquet (Anti-allergic activity of H1-blockers, Int. Arch. Allergy Immunol., 1993, 101, 308–310). Nasal polyps form the starting material (material from patients, who had been subjected to a surgical treatment).
The tissue is washed with RPMI 1640 and subsequently digested with protease (2.0 mg/mL), collagenase (1.5 mg/mL), hyaluronidase (0.75 mg/mL), and DNAse (0.05 mg/mL) for two hours at 37° C. (1 g of tissue and 4 mL of RPMI 1640 with enzymes). The cells obtained, a mixture of epithelial cells, monocytes, macrophages, lymphocytes, fibroblasts and granulocytes, are filtered and washed by being centrifuged repeatedly in culture solution and sensitized passively by the addition of human IgE and the cell suspension is brought to a concentration of 2 million cells/mL in RPMI 1640 (supplemented by antibiotics, 10% fetal calf serum, 2 mM of glutamine and 25 mM of Hepes). This suspension is distributed on six-well cell culture plates (1 ml/well). The cells are pre-incubated for 30 minutes with the test substances in different final concentrations and subsequently stimulated to release TNFα by the addition of anti-IgE (7.2 μg/mL). The maximum release into the culture medium takes place after about 18 hours. During this period, the cells are incubated at 37° C. and 5% carbon dioxide. The culture medium (supernatant) is recovered by centrifuging (five minutes at 4000 rpm) and kept at −70° C. until the cytokin is determined. The TNFα in the supernatant is determined with so-called sandwich ELISAs (basic material Pharmingen), with which cytokin concentrations ranging from 30 to 1000 pg/mL can be determined.
Cells, not stimulated with anti IgE, hardly produce any TNFα; on the other hand, stimulated cells secrete large amounts of TNFα, which can be reduced, for example, by PDE 4 inhibitors as a function of the dose. From the percentage inhibition (TNFα release by the cells, stimulated with anti IgE=100%) of the substances tested at different concentrations, the IC50 (concentration at 50% inhibition) is calculated.

| IC50 (PDE 4) [nM] | Compound | inhibition at 0.3 µM ([1]; concentration 0.3 μmole/L) [%] | inhibition at 1 µM ([1]; concentration 1.0 μmole/L) [%] |
| --- | --- | --- | --- |
| 4 | O=C(Nc1c(Cl)cncc1Cl)C(=O)c1cn(Cc2ccc(F)cc2)c2ncccc12 [Example 14] | 92 | – |
| 2 | CC(C)Cn1cc(C(=O)C(=O)Nc2c(Cl)cncc2Cl)c2cccnc21 [Example 27] | – | 91 |
